Assay results taken from patent US4371541A, “Antiinflammatory and/or analgesic 3,4-dihydro-(or 1,4-dihydro)-4-aryl-2-((substituted)thio)-(1)-benzopyrano(3,4-d)imidazol es and their corresponding sulfoxides and sulfones” (E. I. Du Pont de Nemours and Company, priority 1982, dated 1983).
Read-outs that look alike come from different tables or passages of the source.

What was measured:
[1] = test system: phenylquinone-induced writhing (pain); assay: Phenylquinone Writhing Test; type: in vivo, female white mice; settings: read-out: Phenylquinone Writhing ED50
Procedure: A test compound suspended in 1% methylcellulose was given orally to fasted (17-21 hours) female white mice, 5-20 animals per double blind test. Aqueous (0.01% phenyl-p-benzoquinone) phenylquinone, 0.20 ml per mouse, was injected intraperitoneally 6 minutes before observations were begun.

[2] = test system: adjuvant-induced arthritis; assay: Established Adjuvant-Induced Arthritis in Rats; type: in vivo, Charles River Lewis male rats; settings: rat; for ED50: oral gavage, dosed on day of grouping and 6 following days, ED50% decrease from control paw volume (uninjected left hind paw), read-out: Adjuvant Arthritic ED50; for Adjuvant Arthritic, paw volume reduction at the indicated dose: oral
[3] = mouse, oral, fasted, effective analgesic dose for 50% of the mice

| Structure (SMILES) | ED50 [2] [mg/kg] | ED50 [1, 3] [mg/kg] | other results |
| --- | --- | --- | --- |
| CC(=O)Oc1ccccc1C(=O)O [Aspirin, aspirin, reference compound] |  |  | ED50 ([1]; Mus musculus, po): 135 mg/kg |
| FC(F)C(F)(F)Sc1nc2c([nH]1)C(c1ccccc1)Oc1ccccc1-2 (stereo not shown) [Example 1, 3,4-Dihydro(or 1,4-dihydro)-2-[(1,1,2,2-tetrafluoroethyl)thio]-4-phenyl-[1]benzopyrano[3,4-d]imidazole] | 3.4 | 1.3 |  |
| O=S(=O)(c1nc2c([nH]1)C(c1ccccc1)Oc1ccccc1-2)C(F)(F)C(F)F (stereo not shown) [Example 2, 3,4-Dihydro(or 1,4-dihydro)-2-[(1,1,2,2-tetrafluoroethyl)sulfonyl]-4-phenyl-[1]benzopyrano[3,4-d]imidazole] | 1.3 | 0.19 |  |
| Fc1ccc(C2Oc3ccccc3-c3nc(SC(F)(F)C(F)F)[nH]c32)cc1 (stereo not shown) [Example 3, 3,4-Dihydro(or 1,4-dihydro)-2-[(1,1,2,2-tetrafluoroethyl)thio]-4-(4-fluorophenyl)-[1]benzopyrano[3,4-d]-imidazole] | 4 | 0.79 |  |
| FC(F)(F)Sc1nc2c([nH]1)C(c1ccccc1)Oc1ccccc1-2 (stereo not shown) [Example 4, 3,4-Dihydro(or 1,4-dihydro)-2-[(trifluoromethyl)thio]4phenyl-[1]benzopyrano[3,4-d]imidazole] |  | 0.58 | Adjuvant Arthritic, paw volume reduction at the indicated dose ([2]; at 9 (mg/kg)): 31% |
| O=S(=O)(c1nc2c([nH]1)C(c1ccccc1)Oc1ccccc1-2)C(F)(F)F (stereo not shown) [Example 5, 3,4-Dihydro(or 1,4-dihydro)-2-[(trifluoromethyl)sulfonyl]-4-phenyl-[1]benzopyrano[3,4-d]imidazole] | 0.8 | 0.16 |  |
| CS(=O)(=O)c1nc2c([nH]1)C(c1ccccc1)Oc1ccccc1-2 (stereo not shown) [Example 6, 3,4-Dihydro(or 1,4-dihydro)-2-(methylsulfonyl)-4-phenyl-[1]benzopyrano[3,4-d]imidazole] |  | 78 | Adjuvant Arthritic, paw volume reduction at the indicated dose ([2]; at 27 (mg/kg)): 34% |
| COc1ccc(C2Oc3ccccc3-c3nc(SC(F)(F)C(F)F)[nH]c32)cc1 (stereo not shown) [Example 7] |  | < 4 |  |
| CCSc1nc2c([nH]1)C(c1ccccc1)Oc1ccccc1-2 (stereo not shown) [Example 8] |  |  | Adjuvant Arthritic, paw volume reduction at the indicated dose ([2]; at 20 (mg/kg)): 18% |
| FC(F)(F)CSc1nc2c([nH]1)C(c1ccccc1)Oc1ccccc1-2 (stereo not shown) [Example 9] |  |  | Adjuvant Arthritic, paw volume reduction at the indicated dose ([2]; at 20 (mg/kg)): 30% |
| CC(C)Cc1ccc(C(C)C(=O)O)cc1 (stereo not shown) [Ibuprofen, ibuprofen, reference compound] |  | 10 |  |
| COc1ccc2c(c1)c(CC(=O)O)c(C)n2C(=O)c1ccc(Cl)cc1 [Indomethacin, indomethacin, reference compound] |  |  | ED50 ([1]; Mus musculus, po): 0.35 mg/kg |
| CCCCC1C(=O)N(c2ccccc2)N(c2ccccc2)C1=O [Phenylbutazone, phenylbutazone, reference compound] |  | 80 |  |
